Paper PMC6967409 (Frontiers in Chemistry, 2020)
In brackets after ≈: the same amount, converted by molar mass. Several values for one entry are separate records, joined by “and”; a condition that tells them apart may be missing. Equal entries are not always repeated. Where two headings read alike, the source gives them in different places.

Key:
[1] = system: P. berghei ANKA GFP-Luc-SMcon sporozoites; experiment: P. berghei-luciferase liver stage bioluminescence assay (causal prophylactic mode) in HepG2-CD81 cells; assay type: cell-based, Plasmodium berghei; details: for Emax: 48 h, read-out: P.berghei-Luciferase Liver Stage Bioluminescence Assay: Maximum measured (%)
Procedure: (§1) Briefly, HepG2-CD81 cells were seeded into 1,536 well plates containing 50 nL of test and control compounds diluted into DMSO. […] Next, 2 μL of luciferin reagent (Promega BrightGlo) was added to each well and luciferase activity was detected using a Perkin Elmer Envision plate reader. […] In parallel, plates were processed without sporozoites for HepG2 toxicity measurements.
(§2) In continuation of the transmission blocking theme, it is important to establish activities against liver stage parasites. […] This assay uses ultra-high-throughput screening methods optimized for a 1536-well format and a HepG2 human hepatoma cell line. […] To establish selectivity of the compounds for the parasite in the liver stage of infection, cytotoxicity was determined by measuring bioluminescence from the reaction between free ATP of compound-treated, uninfected hepatocytes and a luciferase reporter system.

[2] = HepG2 cytotoxicity bioluminescence assay (CellTiterGlo, ATP); assay type: cell-based, human; details: human, uninfected HepG2-CD81 cells; for IC50 at 72 h: two biological replicates listed in one cell; for EC50 at 72 h: uninfected HepG2, ATP bioluminescence
Procedure: as §1, §2

[3] = system: HepG2 cells; experiment: as above; assay type: cell-based, human; details: for HepG2 cytotoxicity IC50 (in words): at 25 μM (artemiside 7) and 50 μM (artemisone 8); for IC50 / HepG2 Cytotoxicity Bioluminescence Assay: Maximum measured (%): two biological replicates listed in one cell
Procedure: as §1, §2

[4] = system: P. falciparum W2; experiment: T0 [3H]-hypoxanthine drug susceptibility assay; assay type: cell-based; details: Plasmodium falciparum; for IC50: W2, read-out: W2 IC50; for IC90: W2, read-out: W2 IC90
[5] = system: P. falciparum ARC08-22 (4G); experiment: T0 [3H]-hypoxanthine drug susceptibility assay, artemisinin-resistant clone (C580Y); assay type: cell-based, Plasmodium falciparum; details: preliminary, W2 as comparative sensitive strain
[6] = system: P. falciparum PL08-009 (5C); experiment: as above; assay type: cell-based, Plasmodium falciparum; details: preliminary, W2 as comparative sensitive strain
[7] = system: P. falciparum NF54; set-up: method as in Coertzen et al. (2018); details: pLDH, 48 h; ref Coertzen et al. (2018); read-out: Metabolic IC50 NF54; cited from earlier work
[8] = system: P. falciparum Dd2; set-up: method as in Coertzen et al. (2018); details: pLDH, 48 h; ref Coertzen et al. (2018); read-out: Metabolic IC50 Dd2; cited from earlier work
[9] = system: P. falciparum NF54; set-up: method as in Coertzen et al. (2018); details: SYBR Green I; ref Coertzen et al. (2018); read-out: Proliferative IC50 NF54; cited from earlier work
[10] = system: P. falciparum K1; set-up: method as in Coertzen et al. (2018); details: SYBR Green I; ref Coertzen et al. (2018); read-out: Proliferative IC50 K1; cited from earlier work
[11] = system: P. falciparum W2; set-up: method as in Coertzen et al. (2018); details: SYBR Green I; ref Coertzen et al. (2018); read-out: Proliferative IC50 W2; cited from earlier work
[12] = system: P. falciparum NF54 early stage gametocytes (>90% stage I–III); set-up: method as in Coertzen et al. (2018); details: read-out: Early Stage (EG, Luc 48 h) IC50; >90% stage I–III gametocytes; ref Coertzen et al. (2018); cited from earlier work
[13] = system: P. falciparum NF54 late stage gametocytes (>90% stage IV and V); set-up: method as in Coertzen et al. (2018); details: read-out: Late Stage (LG, Luc 72 h) IC50; >90% stage IV and V gametocytes; ref Coertzen et al. (2018); cited from earlier work
[14] = system: Chinese hamster ovarian (CHO) cells; details: read-out: Cytotoxicity EC50 CHO; MTT assay; ref Coertzen et al. (2018); cited from earlier work
[15] = system: Pf CamWT, Cam3.II, CamWTC580Y, Cam3.IIC580Y, Cam3.IIRev; set-up: method as in Lanteri et al., 2014; details: ref Lanteri et al., 2014; read-out: mean IC50 across CamWT, Cam3.II and K13 transfected strains; cited from earlier work
[16] = system: P. falciparum W2; set-up: method as in Lanteri et al., 2014; details: ref Lanteri et al., 2014; read-out: mean IC50 against W2; cited from earlier work
[17] = set-up: method as in Haynes et al., 2006; details: ref Haynes et al., 2006; cited from earlier work
[18] = Plasmodium berghei, two biological replicates listed in one cell
[19] = Plasmodium berghei, HepG2, 48 h, liver stage, HepG2 host cells, luciferase after 48 h, ±SD, read-out: P. berghei sporozoites IC50
[20] = Plasmodium berghei, two biological replicates listed in one cell, read-out: P.berghei-Luciferase Liver Stage Bioluminescence Assay: IC50

C[C@H]1[C@H](N2CCSCC2)O[C@@H]2O[C@@]3(C)CC[C@H]4[C@H](C)CC[C@@H]1[C@@]24OO3 [Artemiside 7, artemiside]
Emax [1, 18]: 98.1%
IC50 [1, 19]: 81.3 ± 9.62 nM
IC50 [1, 20]: 74.5 nM
inhibition at 5 µM ([1]; Plasmodium berghei, Conc. 5 μM, read-out: P. berghei sporozoites Maximum inhibition %): 99 ± 1.34%
IC50 ([1]; two biological replicates listed in one cell, listed as 7 Artemiside (GC008), read-out: P.berghei-Luciferase Liver Stage Bioluminescence Assay: IC50): 88.1 nM
IC50 at 72 h [2]: > 25000 nM
EC50 at 72 h [2]: > 25000 nM
HepG2 cytotoxicity IC50 (in words) [3]: no measurable IC50 values
IC50 [3]: > 25000 nM
HepG2 Cytotoxicity Bioluminescence Assay: Maximum measured (%) ([3]; listed as 7 Artemiside (GC008)): 30.4% and 36.5%
IC50 [4]: 2.21 ± 0.42 nM
IC90 [4]: 4.28 ± 0.25 nM
susceptibility of ARC08-22 (4G) clone (in words) [5]: no indication of reduced susceptibility
susceptibility of PL08-009 (5C) clone (in words) [6]: no indication of reduced susceptibility
IC50 [7]: 6 ± 1.8 nM
IC50 [8]: 8.2 ± 1.4 nM
IC50 [9]: 1.11 ± 0.17 nM
IC50 [10]: 1.6 ± 0.4 nM
IC50 [11]: 1.75 ± 0.27 nM
IC50 [12]: 16.4 ± 1 nM
IC50 [13]: 1.5 ± 0.5 nM
EC50 [14]: > 271000 nM

C[C@H]1[C@H](N2CCS(=O)(=O)CC2)O[C@@H]2O[C@@]3(C)CC[C@H]4[C@H](C)CC[C@@H]1[C@@]24OO3 [Artemisone 8, artemisone]
Emax [1, 18]: 92.1%
IC50 [1, 19]: 28 nM
inhibition at 10 µM ([1]; Plasmodium berghei, read-out: P. berghei sporozoites Maximum inhibition %): 93.3 ± 1.76%
IC50 [1, 20]: 27.4 nM
inhibition of liver stage parasites ([1]; maintained down to 3 μM, 12-point titrations starting from 10 μM and […]): > 75%
IC50 ([1]; read-out: P. berghei sporozoites IC50, liver stage, HepG2 host cells, luciferase after 48 h, ±SD): 28.3 ± 1.27 nM
IC50 ([1]; two biological replicates listed in one cell, listed as 8 Artemisone (GC003), read-out: P.berghei-Luciferase Liver Stage Bioluminescence Assay: IC50): 29.2 nM
IC50 at 72 h [2]: > 50000 nM
EC50 at 72 h [2]: > 50000 nM
HepG2 cytotoxicity IC50 (in words) [3]: no measurable IC50 values
IC50 [3]: > 50000 nM
HepG2 Cytotoxicity Bioluminescence Assay: Maximum measured (%) ([3]; listed as 8 Artemisone (GC003)): 11.8% and 16.0%
IC50 [4]: 1.69 ± 0.36 nM
IC90 [4]: 3.42 ± 0.45 nM
susceptibility of ARC08-22 (4G) clone (in words) [5]: no indication of reduced susceptibility
susceptibility of PL08-009 (5C) clone (in words) [6]: no indication of reduced susceptibility
IC50 [7]: 3 ± 0.8 nM
IC50 [8]: 2.7 ± 0.3 nM
IC50 [9]: 1.2 ± 0.4 nM
IC50 [10]: 1.01 ± 0.19 nM
IC50 [11]: 1.6 ± 0.4 nM
IC50 [12]: 1.94 ± 0.11 nM
IC50 [13]: 42.4 ± 3.3 nM
IC50 [15]: 2.4 nM
IC50 [16]: 1.9 nM
EC50 [14]: > 249000 nM

C[C@H]1[C@@H](O)O[C@@H]2O[C@@]3(C)CC[C@H]4[C@H](C)CC[C@@H]1[C@@]24OO3 [DHA 2, dihydroartemisinin]
IC50 [4]: 4.58 ± 2.54 nM
IC90 [4]: 10.3 ± 5.76 nM
IC50 [7]: 0.8 ± 0.1 nM
IC50 [8]: 5.7 ± 2 nM
IC50 [9]: 2.51 ± 0.19 nM
IC50 [10]: 1.51 ± 0.33 nM
IC50 [11]: 1.74 ± 0.22 nM
IC50 [12]: 43 ± 3.9 nM
IC50 [13]: 33.7 ± 1.98 nM
IC50 [15]: 11.2 nM
IC50 [16]: 5.2 nM
EC50 [14]: 25200 nM

CC1CCC2C(C)C(NS(N)(=O)=O)OC3OC4(C)CCC1C32OO4 (centres unmarked) [Sulfamide 11]
IC50 [4]: 4.87 ± 0.59 nM
IC90 [4]: 7.53 ± 0.23 nM
IC50 [7]: 10.9 ± 3.4 nM
IC50 [8]: 16.9 ± 2.6 nM
IC50 [9]: 3 ± 1 nM
IC50 [10]: 1.78 ± 0.26 nM
IC50 [11]: 2.04 ± 0.11 nM
IC50 [12]: 15 ± 2 nM
IC50 [13]: 419 ± 59.5 nM
water solubility [17]: 294 µg/mL (≈ 811 µM)
EC50 [14]: 56000 ± 4600 nM
